Results taken from patent publication US20020195406A1, “Compositions and methods for disinfecting small diameter water lines” (priority 2001, published 2002).
Where “and” joins values, the source holds several entries; their conditions need not be identical. Equal values may be shown once.

Key:
[1] = tested on: biofilms; conditions: household bleach 5.25%, glutaraldehyde 3%, isopropanol 15.3%, cited from earlier work; for effluents from biofilms after contact: 15-hours contact; for recolonization returned to pretreatment levels by day: after 15-hours contact
[2] = half reaction as printed; cited from earlier work
[3] = tested on: biofilm bacteria; conditions: free chlorine; cited from earlier work
[4] = tested on: bacteria in biofilms of dental water unit lines; assay: Microbial counts for 6 dental water units after one 30-min treatment with 1000 ppm ClO2 (Example 1); format: cell-based; conditions: for Microbial count of unit effluent water: individual units 31-40; for Microbial count of unit effluent water, mean: mean of 6 units
Protocol: Treatment: This example involved six dental water units, in a preliminary range finding study. The study was run during a particularly warm period of weather, where concomitant warmer municipal water temperatures would be expected to exacerbate biofilm contamination problems. The units were all of the same model, and were fitted with detachable water reservoirs. 100 ml of tap water was placed in each reservoir, and water was then run through the ultrasonic outlets for 30 seconds. Thereafter 30 ml of water was collected aseptically from each outlet. The reservoirs were then disconnected, and water run out of all outlets until the units ran dry. 100 ml of a 1000 ppm treatment solution, prepared as follows, was then placed in each reservoir:
10 ml of a 5.0% sodium chlorite solution was pipetted into a 100-ml volumetric flask already containing 75 ml of deionized water. To that was added 2.0 ml of 13% sodium hypochlorite solution (bleach). Immediately thereafter, 10.0 ml of a 1.9% citric acid solution was added, brought to volume with deionized water, sealed and the flask was agitated to mix the contents.
All outlets were then run until the solution came through each one. The solutions were then left in each unit for 30 minutes, after which the reservoirs were disconnected and the treatment solution was run out until all three outlets from each unit were dry. The reservoirs were then rinsed and filled with water (about 1 liter), and the water then run out of all three outlets until the reservoirs were empty.
[…] Samples were also collected from the tap from which water to operate the units was taken.
Microbial Culture: The water samples were vortex mixed, and then diluted in phosphate-buffered saline in two 10-fold dilutions. The samples were then plated onto yeast extract agar by means of a spiral plater. The plates were incubated at 22° C. for four days, after which they were counted.

[5] = tested on: bacteria in biofilms of dental water unit lines; assay: Microbial counts for a dental water unit after three consecutive-day 30-min treatments with 500 ppm ClO2 (Example 3); format: cell-based
Protocol: The level, however, is probably typical of the tap water in the UK, where this study was run. In this study the unit was treated as in Example 2, but on three consecutive days. Samples were taken of both the incoming supply water and from the unit before treatment on each day, with a 500 ppm ClO2 solution for 30-minutes, and also 1, 2 and 5 days after the last treatment. This schedule is represented in the chart below, along with the data derived from each water sample.

[6] = tested on: bacteria in biofilms of dental water unit lines; assay: Microbial counts for a dental water unit after three staggered 30-min treatments with 500 ppm ClO2 (Example 2); format: cell-based
[7] = tested on: bacteria in biofilms of dental water unit lines; assay: Microbial counts from a dental water unit supplied with sterile water after a single 1000 ppm ClO2 30-minute exposure (Example 4); format: cell-based
Protocol: Treatment: This study was run on a dental water unit that had been supplied with sterile water for a week, after its normal operation with tap water. The intent of the study was to determine if a unit, once disinfected, and not then re-exposed to tap water with excess levels of micro-organisms, would show the rebound in organism levels that has been observed in the previous examples. The unit was exposed to a single 1000 ppm solution of ClO2, prepared and applied for 30 minutes, as fully described in Example 1. Sampling and counting techniques were also the same.

[8] = tested on: bacteria in biofilms of dental water unit lines; assay: Microbial counts for a dental water unit after three staggered 30-min treatments with 500 ppm ClO2 (Example 2); format: cell-based; remark: listed apart in the source
Source text: The level, however, is probably typical of the tap water in the UK, where this study was run. In this study three staggered 30-minute exposures to 500 ppm ClO2 solution were made, and counts then made from 1 to 4 days after each treatment. The techniques of treatment and sampling were similar to those described in Example 1. The ClO2 solution was similarly prepared, using half the level of sodium chlorite and hypochlorite initially, after acidification with citric acid.

[9] = tested on: microorganisms in small diameter water lines; conditions: after 24 hours of treatment; approximately 10%; cited from earlier work
[10] = tested on: dental unit biofilm bacteria; conditions: 13% (130,000 ppm), used periodically in one facility; cited from earlier work

Compound: CC(C)O [isopropanol]
- effluents from biofilms after contact [1]: free of recoverable bacteria
- recolonization returned to pretreatment levels by day [1]: 15 days

Compound: OCl [hypochlorous acid]
- oxidation potential [2]: 1.49 V
- resistance of biofilm bacteria relative to unattached cells [3]: 150-3000 times

Compound: chlorine dioxide [ClO2]
- reduction in the effluent's cfu/ml ([4]; after day two vs T=0, 1000 ppm, 30 min): 27 fold
- difference from T=0 ([4]; after day two, 1000 ppm, 30 min): 1.43 logs
- DWU effluent count relative to tap water ([4]; day 3 after treatment, 1000 ppm, 30 min): approximated that of the tap water
- Microbial count of unit effluent water ([4]; 1 day after 30-min treatment with 1000 ppm ClO2): 1.90 log cfu/ml and 2.08 log cfu/ml and 2.45 log cfu/ml and 3.85 log cfu/ml and 2.30 log cfu/ml and 1.30 log cfu/ml
- Microbial count of unit effluent water ([4]; 2 days after 30-min treatment with 1000 ppm ClO2): 2.78 log cfu/ml and 3.56 log cfu/ml and 3.86 log cfu/ml and 3.32 log cfu/ml and 2.51 log cfu/ml and 3.03 log cfu/ml
- Microbial count of unit effluent water ([4]; 3 days after 30-min treatment with 1000 ppm ClO2): 3.94 log cfu/ml and 3.85 log cfu/ml and 5.25 log cfu/ml and 4.34 log cfu/ml and 2.62 log cfu/ml and 2.81 log cfu/ml
- Microbial count of unit effluent water, mean ([4]; 1 day after 30-min 1000 ppm ClO2): 2.31 log cfu/ml
- Microbial count of unit effluent water, mean ([4]; 2 days after 30-min 1000 ppm ClO2): 3.18 log cfu/ml
- Microbial count of unit effluent water, mean ([4]; 3 days after 30-min 1000 ppm ClO2): 3.80 log cfu/ml
- drop in bacterial colonies per ml of effluent water ([4]; one day after treatment vs T=0, 1000 ppm, 30 min): 2.3 log
- bacterial colonies per ml of effluent water ([4]; one day after treatment, numerical value of mean, 1000 ppm, 30 min): 204 colonies per ml
- unit count below that of the incoming water ([5]; Day 4): 0.9 logs
- unit count below that of the incoming water ([5]; Day 5): 0.8 logs
- count in the issuing water higher than the supply water ([5]; Day 8, five days after the last treatment): 1.0 log
- Unit Count ([5]; day 2, 1 day after first 30-min 500 ppm treatment): 2.7 log cfu/ml
- Unit Count ([5]; day 3, 1 day after second consecutive 500 ppm treatment): 1.8 log cfu/ml
- Unit Count ([5]; day 4, 1 day after third consecutive 500 ppm treatment): 2.8 log cfu/ml
- Unit Count ([5]; day 5, 2 days after last 500 ppm treatment): 2.3 log cfu/ml
- Unit Count ([5]; day 8, 5 days after last 500 ppm treatment): 3.9 log cfu/ml
- unit count below that of the incoming water ([5]; one day after the first 500 ppm treatment (day 2)): 1.2 logs
- Unit Microbial Count ([6]; day 7, seven days after first 500 ppm treatment, before second): 5.83 log cfu/ml
- Unit Microbial Count ([6]; day 18, 7 days after third 500 ppm treatment): 4.08 log cfu/ml
- Unit Count ([7]; 4th day post-application): 0 cfu/ml
- Microbial Counts, Unit Water ([7]; day 8, 1 day after single 1000 ppm 30-min exposure, sterile water supply, unit active): 2.26 log cfu/ml
- Microbial Counts, Unit Water ([7]; day 9, 2 days after exposure, sterile water supply, active): 1.3 log cfu/ml
- Microbial Counts, Unit Water ([7]; day 10, 3 days after exposure, sterile water supply, active): 1.3 log cfu/ml
- Microbial Counts, Unit Water ([7]; day 11, 4 days after exposure, sterile water supply, active): 0 log cfu/ml
- Microbial Counts, Unit Water ([7]; day 14, 7 days after exposure, after passive weekend (days 12-13)): 3.88 log cfu/ml
- Unit Count ([7]; days 2-3 post-application, numerical value of 1.3 logs): 20 organisms per ml
- Unit Count ([7]; one day after treatment, numerical value): 182 cfu/ml
- further drop ([7]; subsequent 2 days after day 8): 10 fold
- population drop ([7]; within a day of the ClO2 treatment): about 40,500 microbial organism per ml of water
- drop of unit count ([7]; within a day of the ClO2 treatment, from pre-treatment average of 4.61 logs): 2.35 log cfu/ml
- reduction in organisms in the effluent water ([8]; after the first 500 ppm treatment): 83 fold
- reduction of unit's count ([8]; after the first 500 ppm treatment (day 0 to day 1)): 1.92 logs
- Unit Microbial Count ([8]; day 1, one day after first 30-min 500 ppm treatment (day 0)): 2.66 log cfu/ml
- Unit Microbial Count ([8]; day 4, four days after first 500 ppm treatment): 4.66 log cfu/ml
- Unit Microbial Count ([8]; day 8, one day after second 500 ppm treatment): 3.04 log cfu/ml
- Unit Microbial Count ([8]; day 11, four days after second 500 ppm treatment, before third): 4.18 log cfu/ml
- Unit Microbial Count ([8]; day 12, one day after third 500 ppm treatment): 1.60 log cfu/ml
- Unit Microbial Count ([8]; day 15, four days after third 500 ppm treatment): 3.15 log cfu/ml

Compound: O=CCCCC=O [glutaraldehyde]
- effluents from biofilms after contact [1]: free of recoverable bacteria
- recolonization returned to pretreatment levels by day [1]: 3 days

Compound: povidone-iodine
- numbers of bacteria after treatment [9]: greatly reduced
- regrowth of bacteria after treatment [9]: quickly begin to rise after eight days

Compound: OCl [hypochlorite]
- effect on bacterial counts [10]: dramatic reductions in bacterial counts, but these rise again rather quickly
